Source: patent US9408854B2, “Methods and systems for pharmacogenomic treatment of cardiovascular conditions” (ROSTAQUO S.P.A., priority 2009, dated 2016)

System: hypertensive patients
Assay: Two separate studies: blood pressure change with HCTZ, Losartan and rostafuroxin in patients carrying profile 4, 8 or 9
Type: in vivo, human
Details: preliminary data; for modification in blood pressure: individuals carrying profile 4
Text: In particular, individuals carrying profile 4 show a modification in blood pressure of: −12.3±1.5 mmHg with HCTZ; −11.3±1.7 with Losartan and −18.74±1.8 mmHg with rostafuroxin; individuals with profile 8 show the a decrease in blood pressure of −11.3±1.2 with HCTZ; −11.6±1.3 with Losartan and −15.2±1.5 mmHg with rostafuroxin; individuals with profile 9 show the a decrease in blood pressure of −11.9±1.2 with HCTZ; −11.4±1.4 with Losartan and −15.2±1.5 mmHg with rostafuroxin.

Structure (SMILES): NS(=O)(=O)c1cc2c(cc1Cl)NCNS2(=O)=O [HCTZ, 6-chloro-1,1-dioxo-3,4-dihydro-2H-1,2,4-benzothiadiazine-7-sulfonamide]
- modification in blood pressure: −12.3±1.5 mmHg
- decrease in blood pressure (individuals with profile 8): −11.3±1.2 mmHg
- decrease in blood pressure (individuals with profile 9): −11.9±1.2 mmHg

Structure (SMILES): CCCCc1nc(Cl)c(CO)n1Cc1ccc(-c2ccccc2-c2nnn[nH]2)cc1 [Losartan, (2-butyl-4-chloro-1-{[2′-(1H-tetrazol-5-yl)biphenyl-4-yl]methyl}-1H-imidazol-5-yl)methanol]
- modification in blood pressure: −11.3±1.7 mmHg
- decrease in blood pressure (individuals with profile 8): −11.6±1.3 mmHg
- decrease in blood pressure (individuals with profile 9): −11.4±1.4 mmHg
